Where “and” joins values, the source holds several entries; their conditions need not be identical. Equal entries are not always repeated. Where two headings read alike, the source gives them in different places.
Columns and labels:
[1] = test system: ZIKV-induced cell death in SNB-19 cells; assay: ATP cell viability assay for ZIKV-induced cell death, SNB-19 cells; type: cell-based, human
How it was run: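 The extent of cell death caused by ZIKV infection was determined from ATP levels. Cells grew in assay plates for 16 hours at 37° C. with 5% CO2, were then given ZIKV solution and kept under the same conditions for 72 hours. ATPlite reagent was applied for 15 minutes and luminescence was read on a ViewLux plate reader. Cell-free wells defined 100% killing and uninfected cell wells defined full viability.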

[2] = test system: ZIKV-induced caspase 3/7 activity in human astrocytes; assay: Caspase 3/7 activity assay, ZIKV-infected human astrocytes; type: cell-based; details: for IC50: read-out: Caspase 3 (IC50, uM) Astrocyte; for Emax: read-out: Caspase 3 (efficacy, %) Astrocyte
How it was run: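 Human NPCs, SNB-19 cells or astrocytes seeded 16 h, compound added 30 min before ZIKV, then 6 h infection at 37 °C. Caspase-Glo 3/7 luminescence after 30 min at room temperature, normalized to uninfected cells (0%) and ZIKV-infected cells (100%).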

[3] = Astrocyte, ZIKV-infected human astrocytes
[4] = Homo sapiens, ZIKV-infected SNB-19 cells, read-out: Cell viability (IC50, uM) SNB-19
[5] = ZIKV-infected SNB-19 cells, read-out: Cell viability (IC50, uM) SNB-19
[6] = Homo sapiens, SNB-19, following ZIKV infection, read-out: IC50 (μM) for improving cell viability, SNB-19

Molecule	Cell viability (efficacy, %) SNB-19 ([1]; ZIKV-infected SNB-19 cells)	IC50 [2, 3]	Emax [2, 3]	other results
Cc1cccc(C#Cc2ccccc2)n1 [MPEP, 2-Methyl-6-(phenylethynyl)pyridine]	0.0%	5.81 µM	118%	
CN(C)CCCSc1ccccc1NC(=O)/C=C/c1ccccc1 [Cinanserin]	56.9%	15.5 µM	80.2%	IC50 [1, 4]: 19.5 µM
O=C(c1ccccc1)c1ccc2n1CCC2C(=O)O (centres unmarked) [Ketorolac tromethamine]	0.0%	21.8 µM	61.7%	
Vitamin B12				IC50 [1, 5]: 0.12 µM; Caspase 3 (efficacy, %) Astrocyte ([2]; ZIKV-infected human astrocytes): 77.1% and 62.7%; IC50 ([2]; ZIKV-infected human astrocytes): 8.69 µM and 6.73 µM
C/C1=C2/[N-][C@H]([C@H](CC(N)=O)[C@@]2(C)CCC(=O)NC[C@@H](C)OP(=O)([O-])O[C@H]2[C@@H](O)[C@@H](n3cnc4cc(C)c(C)cc43)O[C@@H]2CO)[C@]2(C)N=C(/C(C)=C3N=C(/C=C4N=C1[C@@H](CCC(N)=O)C\4(C)C)[C@@H](CCC(N)=O)[C@]\3(C)CC(N)=O)[C@@H](CCC(N)=O)[C@]2(C)CC(N)=O.[Co+3].[OH-] [Hydroxocobalamin]	0.0%			Caspase 3 (efficacy, %) Astrocyte ([2]; ZIKV-infected human astrocytes): 83.4%; IC50 ([2]; ZIKV-infected human astrocytes): 0.97 µM
CN1CC(=O)NC1=NC(=O)Nc1cccc(Cl)c1 [Fenobam]	60.5%			IC50 [1, 5]: 1.73 µM; Caspase 3 (efficacy, %) Astrocyte ([2]; ZIKV-infected human astrocytes): 97.2%; IC50 ([2]; ZIKV-infected human astrocytes): 9.2 µM
O=C(O)c1ccccc1Nc1cccc(C(F)(F)F)c1 [Flufenamic acid]	0.0%	8.69 µM	71.9%	
O=C(OCc1ccccc1)c1ccc(O)cc1 [Benzylparaben]	0.0%	17.3 µM	62.8%	
CC(C(=O)O)c1ccc(C(=O)c2cccs2)cc1 (centres unmarked) [Suprofen]	0.0%	19.5 µM	64.5%	
C[C@H](NC(=O)C(=O)Nc1ccccc1C(C)(C)C)C(=O)N[C@@H](CC(=O)O)C(=O)COc1c(F)c(F)cc(F)c1F [Emricasan]	194%	0.46 µM	77.1%	IC50 [1, 6]: 0.87 µM; IC50 ([1]; Homo sapiens, SNB-19 cells, three ZIKV strains MR766, FSS13025, PRVABC59, read-out: IC50 in the cell viability assay): 0.13 to 0.9 µM; IC50 [1, 4]: 0.87 µM
Cc1cc(O)c2c(c1)C(=O)c1cc(O)cc(O)c1C2=O [Emodin]	0.0%	3.27 µM	86.4%	
O=C(O)CCC(=O)c1ccc(-c2ccccc2)cc1 [Fenbufen]	0.0%	21.8 µM	81.5%	
COc1cccc(-c2ccc(NC(=O)C3=C(C(=O)O)CCC3)c(F)c2)c1 [Vidofludimus]	0.0%	2.91 µM	101%	
COc1ccc(-c2cc(=S)ss2)cc1 [Anethole trithione]	0.0%	13.8 µM	62.7%	
Cc1cccc(/C=C/c2ccccc2)n1 [SIB 1893]	0.0%			Caspase 3 (efficacy, %) Astrocyte ([2]; ZIKV-infected human astrocytes): 96.2%; IC50 ([2]; ZIKV-infected human astrocytes): 12.3 µM
O=C(Nc1ccc(C(=O)O)c(O)c1)c1ccccc1 [Benzoylpas]	0.0%	5.81 µM	94.9%	
CC(C(=O)O)c1ccc(C(=O)c2ccccc2)s1 (centres unmarked) [Tiaprofenic acid]	0.0%	6.15 µM	88.2%	
c1ccc2[nH]c(-c3cscn3)nc2c1 [Thiabendazole]	0.0%	10.3 µM	81%	

Molecule	Cell viability (efficacy, %) SNB-19 ([1]; ZIKV-infected SNB-19 cells)	IC50 [2, 3]	Emax [2, 3]	other results
Cc1ccc(O)c(-n2nc3ccccc3n2)c1 [2-(2H-Benzotriazol-2-yl)-4-methylphenol]	0.0%	9.2 µM	68.5%	
CN1CCN(c2cc3c(nn2)Oc2ccccc2N3C)CC1 [Pipofezine]	0.0%	11.3 µM	56.3%	
CCC(C(=O)O)c1ccc(N2Cc3ccccc3C2=O)cc1 (centres unmarked) [Indobufen]	0.0%	6.52 µM	86.3%	
c1ccc(CCNc2nc(-c3ccccc3)cs2)cc1 [Fanetizole]	0.0%	10.9 µM	72.9%	
Nc1nc2ccc([N+](=O)[O-])cc2s1 [2-Amino-6-nitrobenzothiazole]	0.0%	39.8 µM	54.1%	
O=C1NC(=O)/C(=C/c2ccc(-c3ccc(F)cc3O)o2)S1 [AS-252424]	0.0%			Caspase 3 (efficacy, %) Astrocyte ([2]; ZIKV-infected human astrocytes): 37.5%; IC50 ([2]; ZIKV-infected human astrocytes): 1.73 µM
O=C(Oc1ccccc1)c1cccc(C(=O)Oc2ccccc2)c1 [Diphenyl isophthalate]	0.0%	6.68 µM	104%	
CC(=O)Oc1cccc2c1C(=O)c1c(OC(C)=O)cc(C(=O)O)cc1C2=O [Diacerein]	0.0%	15.5 µM	72.9%	
O=C1c2ccccc2C(=O)c2c1ccc(O)c2O [Alizarin]	0.0%	30.8 µM	47.9%	
Flurbiprofen axetil	0.0%			Caspase 3 (efficacy, %) Astrocyte ([2]; ZIKV-infected human astrocytes): 65.5%; IC50 ([2]; ZIKV-infected human astrocytes): 21.8 µM
O=S(=O)(O)c1ccc2[nH]c(-c3ccccc3)nc2c1 [Ensulizole]	0.0%			IC50 ([2]; Homo sapiens, Astrocyte): 1.95 µM; Emax ([2]; Homo sapiens, Astrocyte): 82.7%
O=C(Nc1ccc([N+](=O)[O-])cc1Cl)c1cc(Cl)ccc1O [Niclosamide]	97.3%	1.84 µM	96.8%	IC50 [1, 6]: 1.95 µM; IC50 [1, 4]: 1.95 µM
O=C(O)c1ccccc1NCCc1ccccc1 [Enfenamic acid]	0.0%	25.9 µM	58%	
CCOCCOC(=O)C=Cc1ccc(OC)cc1 [2-Ethoxylethyl-p-methoxycinnamate]	0.0%		0%	
O=C1NC(=O)C(=Cc2ccc(-c3ccc(F)cc3)o2)S1 [CAY10505]	0.0%			Caspase 3 (efficacy, %) Astrocyte ([2]; ZIKV-infected human astrocytes): 80.1%; IC50 ([2]; ZIKV-infected human astrocytes): 16.4 µM
O=C(O)c1cc([N+](=O)[O-])ccc1NCCCc1ccccc1 [5-Nitro-2-(3-phenylpropylamino)benzoic acid]	0.0%	9.75 µM	82.1%	
CC(=O)Nc1ccc([C@H](C)C(=O)Nc2ncc(C(C)C)s2)cc1 [PHA-690509]	165%			IC50 [1, 5]: 10.9 µM; IC50 ([1]; following ZIKV infection, read-out: IC50 (μM) for improving cell viability, SNB-19): 10.1 µM; Caspase 3 (efficacy, %) Astrocyte ([2]; ZIKV-infected human astrocytes): 71.6%; IC50 ([2]; ZIKV-infected human astrocytes): 13 µM
N#CC1(c2ccc(NC(=O)c3cccnc3NCc3ccncc3)cc2)CCCC1 [Apatinib]	0.0%	19.5 µM	57.9%	

From patent US10940188B2, “Compounds and methods for treatment and prevention of Flavivirus infection” (priority 2016, dated 2021)
